Data published in patent US20170232083A1, “METHODS OF DIAGNOSIS AND TREATMENT OF CELIAC DISEASE IN CHILDREN” (priority 2014, published 2017).

Test system: PBMC (polyclonal gluten-specific T cells) of paediatric and adult CD patients
Assay: IFN-γ ELISpot of PBMC after 3 day oral wheat challenge (SFU, % of maximal peptide response, dominance scores, EC50; Examples 5-6)
Type: cell-based, human
Conditions: for Cross-reactive T cell response: following wheat challenge; for IFN-γ ELISpot response: after oral wheat challenge
[1] = subject I (3-5yrs/6-10yrs part)
[2] = subject J (3-5yrs/6-10yrs part)
[3] = subject K (3-5yrs/6-10yrs part)
[4] = subject V (3-5yrs/6-10yrs part)
[5] = subject W (3-5yrs/6-10yrs part)
[6] = subject Y (3-5yrs/6-10yrs part)
[7] = subject five (3-5yrs/6-10yrs part)
[8] = subject seven (3-5yrs/6-10yrs part)
[9] = subject six (3-5yrs/6-10yrs part)
[10] = subject ten (3-5yrs/6-10yrs part)
[11] = subject two (3-5yrs/6-10yrs part)

## QPFPQPEQPIPQQ
Subject A, 11-17yrs
  Cross-reactive T cell response: 3 SFU
Subject D, 11-17yrs
  Significant response as a percentage of maximal peptide SFU: + (>70% = +)
  Cross-reactive T cell response: 29 SFU
Subject E, 11-17yrs
  Significant response as a percentage of maximal peptide SFU: ′′ (21-40% = ′′)
  Cross-reactive T cell response: 87 SFU
Subject F, 11-17yrs
  Significant response as a percentage of maximal peptide SFU: ′′ (21-40% = ′′)
  Cross-reactive T cell response: 62 SFU
Subject G, 11-17yrs
  Cross-reactive T cell response: 4 SFU
Subject H
  Cross-reactive T cell response: 1 SFU
[1]
  Cross-reactive T cell response: 3 SFU
Subject J
  Significant response as a percentage of maximal peptide SFU: ′′′ (41-70% = ′′′)
[2]
  Cross-reactive T cell response: 132 SFU
Subject K
  Significant response as a percentage of maximal peptide SFU: ′ (11-20% = ′)
[3]
  Cross-reactive T cell response: 11 SFU
Subject P, 11-17yrs
  Significant response as a percentage of maximal peptide SFU: + (>70% = +)
  Cross-reactive T cell response: 48 SFU
Subject Q, 11-17yrs
  Significant response as a percentage of maximal peptide SFU: ′′′ (41-70% = ′′′)
  Cross-reactive T cell response: 64 SFU
Subject T, 11-17yrs
  Significant response as a percentage of maximal peptide SFU: + (>70% = +)
  Cross-reactive T cell response: 87 SFU
Subject U, 11-17yrs
  Significant response as a percentage of maximal peptide SFU: ′′′ (41-70% = ′′′)
  Cross-reactive T cell response: 41 SFU
Subject V
  Significant response as a percentage of maximal peptide SFU: ′′′ (41-70% = ′′′)
[4]
  Cross-reactive T cell response: 17 SFU
[5]
  Cross-reactive T cell response: 5 SFU
[6]
  Cross-reactive T cell response: 7 SFU
Subject five
  Significant response as a percentage of maximal peptide SFU: + (>70% = +)
[7]
  Cross-reactive T cell response: 44 SFU
Subject nine, 11-17yrs
  Cross-reactive T cell response: 1 SFU
[8]
  Cross-reactive T cell response: 7 SFU
Subject six
  Significant response as a percentage of maximal peptide SFU: + (>70% = +)
[9]
  Cross-reactive T cell response: 12 SFU
[10]
  Cross-reactive T cell response: 4 SFU
Subject two
  Significant response as a percentage of maximal peptide SFU: ′′ (21-40% = ′′)
[11]
  Cross-reactive T cell response: 24 SFU

## QPFPQPEQPIPVQ
Patient A, 11-17 yrs, cut-off 10 SFU
  IFN-γ ELISpot response: 5 SFU
Patient D, max peptide 30.5 SFU
  Significant response as percentage of maximal peptide SFU: ′′′ (41-70% = ′′′)
Patient E, H, 11-17 yrs, cut-off 10 SFU
  IFN-γ ELISpot response: 76 SFU
Patient E, max peptide 224 SFU
  Significant response as percentage of maximal peptide SFU: ′′ (21-40% = ′′)
Patient F, 11-17 yrs, cut-off 10 SFU
  IFN-γ ELISpot response: 103 SFU
Patient F, max peptide 178 SFU
  Significant response as percentage of maximal peptide SFU: ′′′ (41-70% = ′′′)
Patient G, 11-17 yrs, cut-off 10 SFU
  IFN-γ ELISpot response: 3 SFU
Patient H (HLA-DQ2.5 homozygote), 3-5yrs, cut-off 10 SFU
  IFN-γ ELISpot response: 29 SFU
Patient H, 11-17 yrs, cut-off 10 SFU
  IFN-γ ELISpot response: 10 SFU
Patient H, max peptide 17 SFU
  Significant response as percentage of maximal peptide SFU: ′′′ (41-70% = ′′′)
Patient ID not given, 11-17 yrs, cut-off 10 SFU
  IFN-γ ELISpot response: 95 SFU
Patient J, max peptide 196 SFU
  Significant response as percentage of maximal peptide SFU: ′′′ (41-70% = ′′′)
Patient K, max peptide 53 SFU
  Significant response as percentage of maximal peptide SFU: ′ (11-20% = ′)
Patient M, max peptide 48 SFU
  Significant response as percentage of maximal peptide SFU: ′′′ (41-70% = ′′′)
Patient N, 3-5yrs, cut-off 10 SFU
  IFN-γ ELISpot response: 2 SFU
Patient P, 11-17 yrs, cut-off 21.6 SFU
  IFN-γ ELISpot response: 42 SFU
Patient P, max peptide 64 SFU
  Significant response as percentage of maximal peptide SFU: ′′′ (41-70% = ′′′)
Patient Q, 11-17 yrs, cut-off 10 SFU
  IFN-γ ELISpot response: 51 SFU
Patient Q, max peptide 97 SFU
  Significant response as percentage of maximal peptide SFU: ′′′ (41-70% = ′′′)
Patient U, H, 11-17 yrs, cut-off 10 SFU
  IFN-γ ELISpot response: 27 SFU
Patient U, max peptide 81 SFU
  Significant response as percentage of maximal peptide SFU: ′′ (21-40% = ′′)
Patient V, 6-10 yrs, cut-off 10 SFU
  IFN-γ ELISpot response: 27 SFU
Patient V, max peptide 35 SFU
  Significant response as percentage of maximal peptide SFU: + (>70% = +)
Patient Y, 6-10 yrs, cut-off 10 SFU
  IFN-γ ELISpot response: 9 SFU
Patient eleven, 6-10 yrs, cut-off 10 SFU
  IFN-γ ELISpot response: 9 SFU
Patient five, max peptide 48 SFU
  Significant response as percentage of maximal peptide SFU: + (>70% = +)
Patient four, 3-5yrs, cut-off 10 SFU
  IFN-γ ELISpot response: 10 SFU
Patient four, max peptide 44 SFU
  Significant response as percentage of maximal peptide SFU: ′′ (21-40% = ′′)
Patient seven, 6-10 yrs, cut-off 10.5 SFU
  IFN-γ ELISpot response: 9 SFU
Patient ten, 3-5yrs, cut-off 10 SFU
  IFN-γ ELISpot response: 11 SFU
Patient ten, max peptide 14.5 SFU
  Significant response as percentage of maximal peptide SFU: + (>70% = +)
Patient three, 6-10 yrs, cut-off 10.5 SFU
  IFN-γ ELISpot response: 126 SFU
Patient twelve, 11-17 yrs, cut-off 10 SFU
  IFN-γ ELISpot response: 20 SFU
Patient two, 3-5yrs, cut-off 10 SFU
  IFN-γ ELISpot response: 53 SFU
Patient two, max peptide 60 SFU
  Significant response as percentage of maximal peptide SFU: + (>70% = +)

## QPFPQPEQPIPYQ
Subject A, 11-17yrs
  Cross-reactive T cell response: 8 SFU
Subject D, 11-17yrs
  Significant response as a percentage of maximal peptide SFU: + (>70% = +)
  Cross-reactive T cell response: 23 SFU
Subject E, 11-17yrs
  Significant response as a percentage of maximal peptide SFU: ′′ (21-40% = ′′)
  Cross-reactive T cell response: 86 SFU
Subject F, 11-17yrs
  Significant response as a percentage of maximal peptide SFU: ′′′ (41-70% = ′′′)
  Cross-reactive T cell response: 84 SFU
Subject G, 11-17yrs
  Cross-reactive T cell response: 2 SFU
Subject H
  Cross-reactive T cell response: 3 SFU
[1]
  Cross-reactive T cell response: 5 SFU
Subject J
  Significant response as a percentage of maximal peptide SFU: ′′′ (41-70% = ′′′)
[2]
  Cross-reactive T cell response: 124 SFU
Subject K
  Significant response as a percentage of maximal peptide SFU: ′′ (21-40% = ′′)
[3]
  Cross-reactive T cell response: 21 SFU
Subject P, 11-17yrs
  Significant response as a percentage of maximal peptide SFU: ′′′ (41-70% = ′′′)
  Cross-reactive T cell response: 33 SFU
Subject Q, 11-17yrs
  Significant response as a percentage of maximal peptide SFU: ′′′ (41-70% = ′′′)
  Cross-reactive T cell response: 58 SFU
Subject T, 11-17yrs
  Significant response as a percentage of maximal peptide SFU: + (>70% = +)
  Cross-reactive T cell response: 84 SFU
Subject U, 11-17yrs
  Significant response as a percentage of maximal peptide SFU: ′′′ (41-70% = ′′′)
  Cross-reactive T cell response: 55 SFU
Subject V
  Significant response as a percentage of maximal peptide SFU: ′′′ (41-70% = ′′′)
[4]
  Cross-reactive T cell response: 22 SFU
[5]
  Cross-reactive T cell response: 11 SFU
Subject Y
  Significant response as a percentage of maximal peptide SFU: ′′′ (41-70% = ′′′)
[6]
  Cross-reactive T cell response: 11 SFU
Subject five
  Significant response as a percentage of maximal peptide SFU: ′′′ (41-70% = ′′′)
[7]
  Cross-reactive T cell response: 30 SFU
Subject nine, 11-17yrs
  Cross-reactive T cell response: 0 SFU
[8]
  Cross-reactive T cell response: 8 SFU
Subject six
  Significant response as a percentage of maximal peptide SFU: + (>70% = +)
[9]
  Cross-reactive T cell response: 11 SFU
[10]
  Cross-reactive T cell response: 9 SFU
Subject two
  Significant response as a percentage of maximal peptide SFU: ′′′ (41-70% = ′′′)
[11]
  Cross-reactive T cell response: 31 SFU

## QPFPQPEQPTPIQ
Subject A, 11-17yrs
  Cross-reactive T cell response: 6 SFU
Subject D, 11-17yrs
  Significant response as a percentage of maximal peptide SFU: ′′ (21-40% = ′′)
  Cross-reactive T cell response: 11 SFU
Subject E, 11-17yrs
  Significant response as a percentage of maximal peptide SFU: ′′ (21-40% = ′′)
  Cross-reactive T cell response: 63 SFU
Subject F, 11-17yrs
  Cross-reactive T cell response: 73 SFU
Subject G, 11-17yrs
  Cross-reactive T cell response: 1 SFU
Subject H
  Cross-reactive T cell response: 1 SFU
[1]
  Cross-reactive T cell response: 0 SFU
Subject J
  Significant response as a percentage of maximal peptide SFU: ′′′ (41-70% = ′′′)
[2]
  Cross-reactive T cell response: 86 SFU
[3]
  Cross-reactive T cell response: 7 SFU
Subject P, 11-17yrs
  Significant response as a percentage of maximal peptide SFU: ′′ (21-40% = ′′)
  Cross-reactive T cell response: 23 SFU
Subject Q, 11-17yrs
  Significant response as a percentage of maximal peptide SFU: ′′′ (41-70% = ′′′)
  Cross-reactive T cell response: 39 SFU
Subject T, 11-17yrs
  Significant response as a percentage of maximal peptide SFU: ′′′ (41-70% = ′′′)
  Cross-reactive T cell response: 61 SFU
Subject U, 11-17yrs
  Significant response as a percentage of maximal peptide SFU: ′′ (21-40% = ′′)
  Cross-reactive T cell response: 21 SFU
[4]
  Cross-reactive T cell response: 5 SFU
[5]
  Cross-reactive T cell response: 0 SFU
[6]
  Cross-reactive T cell response: 4 SFU
Subject five
  Significant response as a percentage of maximal peptide SFU: + (>70% = +)
[7]
  Cross-reactive T cell response: 38 SFU
Subject nine, 11-17yrs
  Cross-reactive T cell response: 2 SFU
[8]
  Cross-reactive T cell response: 6 SFU
Subject six
  Significant response as a percentage of maximal peptide SFU: + (>70% = +)
[9]
  Cross-reactive T cell response: 12 SFU
[10]
  Cross-reactive T cell response: 8 SFU
Subject two
  Significant response as a percentage of maximal peptide SFU: ′′ (21-40% = ′′)
[11]
  Cross-reactive T cell response: 20 SFU

## QPFPQPEQQLPLQ
Subject A, 11-17yrs
  Cross-reactive T cell response: 1 SFU
Subject D, 11-17yrs
  Cross-reactive T cell response: 5 SFU
Subject E, 11-17yrs
  Significant response as a percentage of maximal peptide SFU: ′ (11-20% = ′)
  Cross-reactive T cell response: 30 SFU
Subject F, 11-17yrs
  Cross-reactive T cell response: 5 SFU
Subject G, 11-17yrs
  Cross-reactive T cell response: 1 SFU
Subject H
  Cross-reactive T cell response: 1 SFU
[1]
  Cross-reactive T cell response: 3 SFU
Subject J
  Significant response as a percentage of maximal peptide SFU: ′′′ (41-70% = ′′′)
[2]
  Cross-reactive T cell response: 79 SFU
[3]
  Cross-reactive T cell response: 9 SFU
Subject P, 11-17yrs
  Cross-reactive T cell response: 11 SFU
Subject Q, 11-17yrs
  Significant response as a percentage of maximal peptide SFU: ′ (11-20% = ′)
  Cross-reactive T cell response: 11 SFU
Subject T, 11-17yrs
  Significant response as a percentage of maximal peptide SFU: ′′ (21-40% = ′′)
  Cross-reactive T cell response: 27 SFU
Subject U, 11-17yrs
  Cross-reactive T cell response: 4 SFU
[4]
  Cross-reactive T cell response: 3 SFU
[5]
  Cross-reactive T cell response: 3 SFU
[6]
  Cross-reactive T cell response: 5 SFU
Subject five
  Significant response as a percentage of maximal peptide SFU: ′′ (21-40% = ′′)
[7]
  Cross-reactive T cell response: 11 SFU
Subject nine, 11-17yrs
  Cross-reactive T cell response: 3 SFU
[8]
  Cross-reactive T cell response: 11 SFU
Subject six
  Significant response as a percentage of maximal peptide SFU: + (>70% = +)
[9]
  Cross-reactive T cell response: 11 SFU
[10]
  Cross-reactive T cell response: 6 SFU
[11]
  Cross-reactive T cell response: 2 SFU
